From ChEMBL document CHEMBL1201862, “PubChem BioAssay data set” (2004) come the findings set out here.

The structures appear in SMILES notation. The source made the active and inactive calls.

Data set [1] addresses E3 ubiquitin-protein ligase XIAP (Homo sapiens, UniProt P98170). As to the kind of experiment: Counter Screen using XIAP-Bir3 for Chemical Antagonists of Bir1/2 domains of IAP-family anti-apoptotic proteins. [Related pubchem assays (depositor defined):AID1018, AID1449, AID1514, AID1638, AID1749, AID1750, AID488957, AID488963]. Background: A counterscreen serves to expose hits that act by an unwanted route or on another target.

In a further data set the target is Ephrin type-A receptor 4 (Mus musculus, UniProt Q03137). As to the kind of experiment: inhibitors of EphA4 binding to KYL peptide, primary screen, biochemical, colorimetric, mouse EphA4 (AID 689). The class given is functional.
For data set [2], the target named is G-protein coupled receptor 55 (Homo sapiens, UniProt Q9Y2T6). Description: GPR55 agonists via beta-arrestin recruitment, primary screen, imaging, U2OS cells, beta-arrestin-GFP redistribution (AID 1961). The class given is functional. In general terms: Activated receptors often draw arrestin, which recruitment assays turn into a signal.
A short description of data set [3]: cytotoxicity in HEK-293T cells, dose response, cytotoxicity control for BCR NF-kB inhibitor project, luminescence, B-cell screen hits (AID 489021).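 Note: HEK-293T cells carrying an NF-kB luciferase reporter; cells exposed to compound for about 14 hours before viability readout.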 It is filed as functional, cell-based.
The subject of data set [4] is BJ. Description: cytotoxicity toward BJ-TERT fibroblasts, dose response, cell-based, RAS-independent, luminescence (AID 1933). It is filed as functional. The note with it: Homo sapiens.
Data set [5] has as its system BJ. As to the kind of experiment: cells. The class given is functional, cell-based. Particulars: Homo sapiens.
Data set [6] concerns BJ. Description: cytotoxicity toward BJ-TERT-LT-ST fibroblasts, dose response, cell-based, RAS-independent, luminescence (AID 1935).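 Note: BJ fibroblasts immortalized with TERT plus LT and ST oncogenes.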 The note with it: Homo sapiens. The class given is functional.
Data set [7] can be described thus: cytotoxicity toward DRD oncogenic fibroblasts, dose response, cell-based, non-viral oncogenic, luminescence (AID 1934). It is filed as functional. The note with it: Homo sapiens.
For the next data set, the target named is T1, Bcl-2-related protein A1 (Mus musculus, UniProt Q07440).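 Note: confirmatory dose–response counterscreen on Bfl-1, used to check hits from a UBC13 polyubiquitin inhibitor campaign.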
T1 sequence (Q07440 whole entry): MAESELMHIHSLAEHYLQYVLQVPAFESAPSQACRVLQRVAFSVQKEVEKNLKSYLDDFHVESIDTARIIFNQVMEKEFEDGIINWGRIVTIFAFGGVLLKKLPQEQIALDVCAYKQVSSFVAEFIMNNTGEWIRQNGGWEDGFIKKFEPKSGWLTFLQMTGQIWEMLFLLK
The class given is functional.

Data set [8] concerns the target T2, Ubiquitin-conjugating enzyme E2 N (Homo sapiens, UniProt P61088).
T2 sequence (P61088 whole entry): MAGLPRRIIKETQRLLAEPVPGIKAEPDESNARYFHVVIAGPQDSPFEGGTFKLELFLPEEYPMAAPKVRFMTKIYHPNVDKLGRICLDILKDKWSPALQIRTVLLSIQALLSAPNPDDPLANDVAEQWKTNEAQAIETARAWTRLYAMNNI
It is filed as functional.

Data set [9] deals with T2, Ubiquitin-conjugating enzyme E2 N. It is filed as functional. The source holds these as a separate data set.
The target of data set [10] is T3, Type-1 angiotensin II receptor (Homo sapiens, UniProt P30556).
T3 sequence (P30556 whole entry): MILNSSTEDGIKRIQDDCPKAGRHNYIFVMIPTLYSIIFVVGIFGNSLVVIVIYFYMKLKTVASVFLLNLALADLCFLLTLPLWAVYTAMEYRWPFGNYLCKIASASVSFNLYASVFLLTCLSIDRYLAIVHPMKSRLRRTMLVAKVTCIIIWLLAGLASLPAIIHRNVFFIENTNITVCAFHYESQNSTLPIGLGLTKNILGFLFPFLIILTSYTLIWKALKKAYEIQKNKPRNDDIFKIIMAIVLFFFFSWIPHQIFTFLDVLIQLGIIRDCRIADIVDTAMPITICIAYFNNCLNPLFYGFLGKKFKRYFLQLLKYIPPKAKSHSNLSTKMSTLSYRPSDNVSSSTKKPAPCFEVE
As to the kind of experiment: AT1 receptor agonists, dose response, selectivity assay for APJ receptor agonist project, cell-based, uHTS hits (AID 488865).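 Note: beta-arrestin recruitment to AT1 measured by enzyme fragment complementation luminescence.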 It is filed as functional.

The nature of data set [11]: Late stage assay provider results from the probe development effort to identify inhibitors of Protein Phosphatase Methylesterase 1 (PME-1): luminescence-based biochemical dose response assay to determine cytotoxicity of inhibitor compounds. [Related pubchem assays (depositor defined):AID2130, AID2143, AID2171, AID2174, AID2177, AID2232, AID2233, AID2291, AID2363, AID2365, AID2366, AID2368, AID2369, AID2371, AID463124, AID463130, AID463131, AID463132, AID463146, AID463149] Panel member name: Fetal Calf Serum. The class given is toxicity.

Data set [12] can be described thus: Late stage assay provider results from the probe development effort to identify inhibitors of Protein Phosphatase Methylesterase 1 (PME-1): luminescence-based […] dose response assay to determine cytotoxicity of inhibitor compounds. [Related pubchem assays (depositor defined):AID2130, AID2143, AID2171, AID2174, AID2177, AID2232, AID2233, AID2291, AID2363, AID2365, AID2366, AID2368, AID2369, AID2371, AID463124, AID463130, AID463131, AID463132, AID463146, AID463149] Panel member name: Serum-free Media. The class given is toxicity.

The target in data set [13] is T4, Lysosomal acid glucosylceramidase (Homo sapiens, UniProt P04062).
T4 sequence (P04062 whole entry): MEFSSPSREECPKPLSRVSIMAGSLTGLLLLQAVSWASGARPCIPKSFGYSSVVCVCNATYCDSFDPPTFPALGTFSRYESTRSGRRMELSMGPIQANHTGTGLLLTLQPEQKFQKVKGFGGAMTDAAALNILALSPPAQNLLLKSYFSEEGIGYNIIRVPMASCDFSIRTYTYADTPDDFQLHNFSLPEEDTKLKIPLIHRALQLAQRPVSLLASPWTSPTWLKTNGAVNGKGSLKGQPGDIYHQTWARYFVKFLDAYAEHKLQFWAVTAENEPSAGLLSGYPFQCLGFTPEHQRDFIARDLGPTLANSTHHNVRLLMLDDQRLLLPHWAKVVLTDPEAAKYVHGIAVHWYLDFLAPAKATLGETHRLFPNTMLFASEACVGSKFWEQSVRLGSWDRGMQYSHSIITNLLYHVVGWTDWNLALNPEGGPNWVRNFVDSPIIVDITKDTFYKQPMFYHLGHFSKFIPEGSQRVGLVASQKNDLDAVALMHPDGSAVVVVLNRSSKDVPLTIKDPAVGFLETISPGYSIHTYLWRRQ
As to the kind of experiment: Dose response cell-based high throughput screening assay to identify enhancers of beta-glucosidase activity. [Related pubchem assays: 784 ]. The class given is functional.

In data set [14] the target is T5, Calpain-2 catalytic subunit (Sus scrofa, UniProt P43367).
T5 sequence (P43367 whole entry): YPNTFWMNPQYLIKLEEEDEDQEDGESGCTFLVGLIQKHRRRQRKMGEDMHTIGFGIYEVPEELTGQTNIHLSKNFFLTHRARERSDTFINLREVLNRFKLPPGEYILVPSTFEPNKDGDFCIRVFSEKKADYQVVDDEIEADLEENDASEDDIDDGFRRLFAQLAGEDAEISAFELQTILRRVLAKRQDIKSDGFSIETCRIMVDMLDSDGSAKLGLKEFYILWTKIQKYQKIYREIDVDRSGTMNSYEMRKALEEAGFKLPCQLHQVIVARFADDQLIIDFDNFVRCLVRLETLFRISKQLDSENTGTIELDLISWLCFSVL
As to the kind of experiment: pig calpain II inhibitor potency, dose response, biochemical, fluorogenic peptide substrate (AID 1420). The class given is functional.

The target of a further data set is T6, Hexokinase HKDC1 (Homo sapiens, UniProt Q2TB90).
T6 sequence (Q2TB90 whole entry): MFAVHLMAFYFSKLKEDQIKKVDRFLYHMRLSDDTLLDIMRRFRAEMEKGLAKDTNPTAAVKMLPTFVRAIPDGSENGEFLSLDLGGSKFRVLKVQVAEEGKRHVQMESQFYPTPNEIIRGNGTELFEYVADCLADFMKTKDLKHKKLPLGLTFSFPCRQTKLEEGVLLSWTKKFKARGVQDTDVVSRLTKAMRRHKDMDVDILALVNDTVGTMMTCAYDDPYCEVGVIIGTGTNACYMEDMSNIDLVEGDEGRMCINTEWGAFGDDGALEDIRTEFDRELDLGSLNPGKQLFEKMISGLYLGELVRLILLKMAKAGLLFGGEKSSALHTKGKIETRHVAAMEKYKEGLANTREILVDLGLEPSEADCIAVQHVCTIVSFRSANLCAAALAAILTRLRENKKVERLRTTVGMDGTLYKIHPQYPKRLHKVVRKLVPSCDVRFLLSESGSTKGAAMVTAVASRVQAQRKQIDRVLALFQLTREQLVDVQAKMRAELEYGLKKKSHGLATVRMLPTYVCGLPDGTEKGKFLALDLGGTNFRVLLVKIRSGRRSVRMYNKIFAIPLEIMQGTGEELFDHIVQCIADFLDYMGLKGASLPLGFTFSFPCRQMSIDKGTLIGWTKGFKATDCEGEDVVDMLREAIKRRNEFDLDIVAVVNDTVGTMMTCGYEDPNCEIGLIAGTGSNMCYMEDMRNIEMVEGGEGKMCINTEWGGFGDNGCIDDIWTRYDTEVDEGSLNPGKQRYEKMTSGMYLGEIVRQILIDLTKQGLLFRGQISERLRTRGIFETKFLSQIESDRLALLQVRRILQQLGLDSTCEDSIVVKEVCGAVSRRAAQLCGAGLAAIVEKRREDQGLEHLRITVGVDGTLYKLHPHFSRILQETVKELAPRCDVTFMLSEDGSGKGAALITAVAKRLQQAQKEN
Description: HKDC1 hexokinase activators, dose response, biochemical, W721R variant (AID 504730). It is filed as functional.

A further data set deals with T7, Hexokinase-1 (Homo sapiens, UniProt P19367).
T7 sequence (P19367 whole entry): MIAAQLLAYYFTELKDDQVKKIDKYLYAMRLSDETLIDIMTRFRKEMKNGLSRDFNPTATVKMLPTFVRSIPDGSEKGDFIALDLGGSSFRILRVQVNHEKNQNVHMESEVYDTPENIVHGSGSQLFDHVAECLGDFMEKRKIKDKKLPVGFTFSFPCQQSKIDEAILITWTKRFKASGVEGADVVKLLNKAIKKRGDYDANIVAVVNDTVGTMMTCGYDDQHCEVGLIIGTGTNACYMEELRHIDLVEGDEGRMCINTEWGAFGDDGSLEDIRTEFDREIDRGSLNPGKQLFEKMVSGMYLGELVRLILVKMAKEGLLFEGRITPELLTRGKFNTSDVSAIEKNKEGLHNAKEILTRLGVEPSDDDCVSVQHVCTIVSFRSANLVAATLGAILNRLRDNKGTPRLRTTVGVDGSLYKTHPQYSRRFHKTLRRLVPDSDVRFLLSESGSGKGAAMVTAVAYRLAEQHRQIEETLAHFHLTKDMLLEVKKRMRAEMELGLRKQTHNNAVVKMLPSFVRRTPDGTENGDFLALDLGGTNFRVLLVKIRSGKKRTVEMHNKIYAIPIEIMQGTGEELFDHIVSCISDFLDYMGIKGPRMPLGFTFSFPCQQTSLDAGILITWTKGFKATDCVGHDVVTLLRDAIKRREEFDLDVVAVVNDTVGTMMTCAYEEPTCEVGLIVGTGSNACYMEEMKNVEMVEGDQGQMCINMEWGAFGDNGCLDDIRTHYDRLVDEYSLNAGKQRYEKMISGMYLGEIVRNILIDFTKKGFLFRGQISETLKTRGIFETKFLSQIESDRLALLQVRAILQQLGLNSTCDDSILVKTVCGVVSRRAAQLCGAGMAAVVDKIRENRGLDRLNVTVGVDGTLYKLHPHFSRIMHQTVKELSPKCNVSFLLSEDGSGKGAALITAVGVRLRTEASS
Description: hexokinase 1 activators, dose response, selectivity assay for HKDC1 activator project, biochemical (AID 504762). It is filed as functional.

Chain of E3 ubiquitin-protein ligase XIAP (P98170 whole entry): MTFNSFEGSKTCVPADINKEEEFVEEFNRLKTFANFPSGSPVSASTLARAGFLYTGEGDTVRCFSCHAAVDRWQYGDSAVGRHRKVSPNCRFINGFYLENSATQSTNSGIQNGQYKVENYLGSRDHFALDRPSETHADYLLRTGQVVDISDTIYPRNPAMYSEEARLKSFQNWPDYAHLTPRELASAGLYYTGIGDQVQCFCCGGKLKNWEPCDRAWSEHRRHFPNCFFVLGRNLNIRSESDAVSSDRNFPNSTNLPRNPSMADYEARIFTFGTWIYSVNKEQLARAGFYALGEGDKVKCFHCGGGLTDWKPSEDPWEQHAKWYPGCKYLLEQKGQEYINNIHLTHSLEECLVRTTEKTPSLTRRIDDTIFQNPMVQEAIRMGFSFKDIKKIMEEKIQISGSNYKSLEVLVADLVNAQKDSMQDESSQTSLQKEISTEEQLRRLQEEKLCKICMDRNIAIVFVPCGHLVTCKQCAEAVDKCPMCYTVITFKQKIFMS
Chain of G-protein coupled receptor 55 (Q9Y2T6 whole entry): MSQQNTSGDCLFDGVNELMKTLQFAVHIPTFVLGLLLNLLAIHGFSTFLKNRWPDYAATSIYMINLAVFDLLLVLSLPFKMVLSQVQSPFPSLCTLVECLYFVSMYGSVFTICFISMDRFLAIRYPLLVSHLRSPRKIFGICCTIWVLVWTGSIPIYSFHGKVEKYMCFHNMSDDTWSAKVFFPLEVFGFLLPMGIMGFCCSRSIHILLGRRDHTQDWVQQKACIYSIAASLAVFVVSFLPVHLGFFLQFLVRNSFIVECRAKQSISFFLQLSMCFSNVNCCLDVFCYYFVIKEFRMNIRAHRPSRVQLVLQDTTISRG
Chain of Ephrin type-A receptor 4 (Q03137 whole entry): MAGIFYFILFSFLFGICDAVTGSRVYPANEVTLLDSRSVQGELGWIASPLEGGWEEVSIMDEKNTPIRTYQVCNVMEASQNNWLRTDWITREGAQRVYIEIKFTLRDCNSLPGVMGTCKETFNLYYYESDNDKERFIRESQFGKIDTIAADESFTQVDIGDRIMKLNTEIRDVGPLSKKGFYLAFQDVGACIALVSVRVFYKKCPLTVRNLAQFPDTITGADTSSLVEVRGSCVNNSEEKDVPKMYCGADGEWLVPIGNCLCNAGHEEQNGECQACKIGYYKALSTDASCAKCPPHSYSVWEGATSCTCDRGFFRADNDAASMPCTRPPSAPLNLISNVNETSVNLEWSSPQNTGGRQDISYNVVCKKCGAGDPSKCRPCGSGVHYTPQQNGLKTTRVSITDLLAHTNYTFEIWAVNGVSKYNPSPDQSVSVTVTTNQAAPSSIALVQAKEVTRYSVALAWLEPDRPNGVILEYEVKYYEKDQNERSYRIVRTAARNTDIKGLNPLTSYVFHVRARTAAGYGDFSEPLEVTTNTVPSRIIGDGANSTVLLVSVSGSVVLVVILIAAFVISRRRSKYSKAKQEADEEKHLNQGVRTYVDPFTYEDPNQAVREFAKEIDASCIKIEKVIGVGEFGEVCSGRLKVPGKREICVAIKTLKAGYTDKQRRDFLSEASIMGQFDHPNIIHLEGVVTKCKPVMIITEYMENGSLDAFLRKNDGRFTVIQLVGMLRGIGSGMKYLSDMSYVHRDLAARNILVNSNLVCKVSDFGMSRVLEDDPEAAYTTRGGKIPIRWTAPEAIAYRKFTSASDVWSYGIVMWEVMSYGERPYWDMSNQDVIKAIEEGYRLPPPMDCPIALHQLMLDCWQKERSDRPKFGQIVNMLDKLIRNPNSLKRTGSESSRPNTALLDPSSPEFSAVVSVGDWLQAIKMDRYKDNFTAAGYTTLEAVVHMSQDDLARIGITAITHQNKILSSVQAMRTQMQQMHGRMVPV

A word on the IC50: it is the concentration that inhibits the measured activity by half. As usually defined, the EC50 is the concentration that produces a half-maximal response. For `CCC(C)N1C(=O)/C(=C/c2c(NCCCOC(C)C)nc3c(C)cccn3c2=O)SC1=S` (stereo not drawn), the results for the IC50 (in data set [1]; on Ephrin type-A receptor 4; in data set [3]) were > 20 µM (inactive), 9.88 µM (active) and > 80 µM (inactive), respectively. For the same compound, the concentration for a half-maximal effect (EC50) in [2] was 0.532 µM (active).
For `Cc1cc(C)c2sc(N(CCCN(C)C)C(=O)c3ccc(S(=O)(=O)N4CCc5ccccc5C4)cc3)nc2c1`, the 50% effective concentration (EC50) is 1.57 µM (active) with BJ [4]; 9.56 µM (active) in the data set on BJ [5]; 2.54 µM (inconclusive) in the data set with BJ [6]; 3.68 µM (active) in [7]; > 100 µM (inactive) in data set [10]. In addition, the results for the IC50 (on Bcl-2-related protein A1; in [8]; in data set [9]) were > 20 µM (inactive), 10 µM (active) and 4.64 µM (active), respectively.
The CC50 is the concentration giving 50% cytotoxicity. As for `CC[C@]1(c2ccccc2C)C(=O)N(C(=O)OC)N1C(=O)OC`, the CC50 in data set [11] and in [12] was > 50 µM (inactive) each time.
With `O=S(=O)(NC1c2cccc3cccc(c23)C1N1CCNCC1)c1ccccc1` (stereo not drawn), the values for the concentration for a half-maximal effect (EC50) (in data set [13]; at Hexokinase HKDC1; on Hexokinase-1) were 1.66 µM (active), 11.7 µM (active) and 13.6 µM (active), respectively. In addition, the concentration for half-maximal inhibition (IC50) in data set [14] is < 0.4 µM (not active).
